Experimental data taken from the supplement of paper PMC8617591.

What was measured:
[1] = system: Mycobacterium tuberculosis Erdman (autoluminescent); test: Einf, fitted maximum growth inhibition of three-drug combination (fraction); higher = stronger maximal inhibition
Procedure: (§1)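 DiaMOND equipotent three-drug combination dose responses (10 doses, 1.5- or 2-fold spacing, centred on IC90) against autoluminescent M. tuberculosis Erdman in 8 in vitro models. Read-out is OD600, or luminescence for the intracellular and dormancy models, normalised to untreated wells. Hill-fit Einf, AUC25 and GRinf are potency metrics; FIC50 and FIC90 are total Loewe fractional inhibitory concentrations as log2 (negative = synergy).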

[2] = system: Mycobacterium tuberculosis Erdman (autoluminescent); test: AUC25, normalised area under dose response up to IC25 (three-drug combination) (fraction (0-1)); higher = more potent at low dose
Procedure: as §1

[3] = system: Mycobacterium tuberculosis Erdman (autoluminescent); test: GRinf, maximum normalised growth rate inhibition (three-drug combination) (unitless (-1 to 1)); higher = less effect (negative = killing)
Procedure: as §1

[4] = system: Mycobacterium tuberculosis Erdman (autoluminescent); test: total FIC90 (Loewe) at 90% inhibition, three-drug combination (log2); higher = more antagonistic
Procedure: as §1

[5] = system: Mycobacterium tuberculosis Erdman (autoluminescent); test: total FIC50 (Loewe) at 50% inhibition, three-drug combination (log2); higher = more antagonistic
Procedure: as §1

COc1c(N2C[C@@H]3CCCN[C@@H]3C2)c(F)cc2c(=O)c(C(=O)O)cn(C3CC3)c12 [moxifloxacin] + CO[C@H]1/C=C/O[C@@]2(C)Oc3c(C)c(O)c4c(O)c(c(/C=N/N5CCN(C6CCCC6)CC5)c(O)c4c3C2=O)NC(=O)/C(C)=C\C=C\[C@H](C)[C@H](O)[C@@H](C)[C@@H](O)[C@@H](C)[C@H](OC(C)=O)[C@@H]1C [rifapentine] + CO[C@H]1/C=C/O[C@@]2(C)Oc3c(C)c(O)c4c(O)c(c(/C=N/N5CCN(C)CC5)c(O)c4c3C2=O)NC(=O)/C(C)=C\C=C\[C@H](C)[C@H](O)[C@@H](C)[C@@H](O)[C@@H](C)[C@H](OC(C)=O)[C@@H]1C [rifampicin]
Conditions	AUC25, [2]	Einf, [1]	GRinf, [3]	total FIC50, [5]	total FIC90, [4]
in vitro model: acidic pH 5.7, time point: constant (~7 days, model-specific)	0.0724	0.838	0.0128	0.153	–
in vitro model: acidic pH 5.7, time point: terminal (~4-5 doublings, model-specific)	0.0677	0.973	-0.122	0.25	0.137
in vitro model: intracellular J774, time point: constant = terminal	–	0.952	-0.11	–	1.1

Conditions	AUC25, [2]	Einf, [1]	GRinf, [3]	total FIC50, [5]	total FIC90, [4]
in vitro model: butyrate, time point: constant (~7 days, model-specific)	0.102	0.883	0.109	0.138	2.35
in vitro model: butyrate, time point: terminal (~4-5 doublings, model-specific)	0.0922	0.952	0.0591	0.217	0.559
in vitro model: cholesterol 0.05 mM, time point: constant (~7 days, model-specific)	0.101	0.593	0.0182	0.609	–
in vitro model: cholesterol 0.05 mM, time point: terminal (~4-5 doublings, model-specific)	0.0956	0.891	-0.0633	0.426	1.76
in vitro model: cholesterol-high 0.2 mM, time point: constant (~7 days, model-specific)	0.0581	0.825	-0.0146	0.356	–
in vitro model: cholesterol-high 0.2 mM, time point: terminal (~4-5 doublings, model-specific)	0.0631	1	-0.758	0.707	0.468
in vitro model: dormancy (butyrate + nitrate, low O2), time point: constant (~7 days, model-specific)	0.0643	0.868	0.252	0.441	0.199
in vitro model: dormancy (butyrate + nitrate, low O2), time point: terminal (~4-5 doublings, model-specific)	0.0509	0.977	-0.14	0.539	0.615
in vitro model: standard 7H9 glycerol, time point: constant = terminal	0.0451	0.821	0.307	0.381	–
in vitro model: valerate, time point: constant (~7 days, model-specific)	0.0421	0.846	0.0605	0.542	–
in vitro model: valerate, time point: terminal (~4-5 doublings, model-specific)	0.0285	0.934	0.041	0.547	0.3

COc1c(N2C[C@@H]3CCCN[C@@H]3C2)c(F)cc2c(=O)c(C(=O)O)cn(C3CC3)c12 [moxifloxacin] + NC(=O)c1cnccn1 [pyrazinamide] + CO[C@H]1/C=C/O[C@@]2(C)Oc3c(C)c(O)c4c(O)c(c(/C=N/N5CCN(C6CCCC6)CC5)c(O)c4c3C2=O)NC(=O)/C(C)=C\C=C\[C@H](C)[C@H](O)[C@@H](C)[C@@H](O)[C@@H](C)[C@H](OC(C)=O)[C@@H]1C [rifapentine]
Conditions	AUC25, [2]	Einf, [1]	GRinf, [3]	total FIC50, [5]	total FIC90, [4]
in vitro model: acidic pH 5.7, time point: constant (~7 days, model-specific)	0.0979	0.916	-0.164	0.396	–
in vitro model: acidic pH 5.7, time point: terminal (~4-5 doublings, model-specific)	0.0717	0.996	-0.192	0.991	-0.209
in vitro model: intracellular J774, time point: constant = terminal	–	0.968	-0.65	–	0.713

Conditions	AUC25, [2]	Einf, [1]	GRinf, [3]	total FIC50, [5]	total FIC90, [4]
in vitro model: butyrate, time point: constant (~7 days, model-specific)	0.118	0.907	0.0713	0.589	0.846
in vitro model: butyrate, time point: terminal (~4-5 doublings, model-specific)	0.0899	0.961	0.0339	0.781	1.19
in vitro model: cholesterol 0.05 mM, time point: constant (~7 days, model-specific)	0.116	0.617	-0.407	–	–
in vitro model: cholesterol 0.05 mM, time point: terminal (~4-5 doublings, model-specific)	0.0984	0.913	-0.171	1.31	–
in vitro model: cholesterol-high 0.2 mM, time point: constant (~7 days, model-specific)	0.0917	0.947	-0.459	0.921	–
in vitro model: cholesterol-high 0.2 mM, time point: terminal (~4-5 doublings, model-specific)	0.0805	1	-0.837	1.23	1.05
in vitro model: dormancy (butyrate + nitrate, low O2), time point: constant (~7 days, model-specific)	0.0716	0.862	0.214	0.262	0.265
in vitro model: dormancy (butyrate + nitrate, low O2), time point: terminal (~4-5 doublings, model-specific)	0.07	0.979	-0.13	0.473	1.04
in vitro model: standard 7H9 glycerol, time point: constant = terminal	0.0577	0.882	0.0649	–	–
in vitro model: valerate, time point: constant (~7 days, model-specific)	0.0789	0.81	0.162	0.849	–
in vitro model: valerate, time point: terminal (~4-5 doublings, model-specific)	0.0473	0.929	0.0611	0.778	0.693

COc1c(N2C[C@@H]3CCCN[C@@H]3C2)c(F)cc2c(=O)c(C(=O)O)cn(C3CC3)c12 [moxifloxacin] + NC(=O)c1cnccn1 [pyrazinamide] + CO[C@H]1/C=C/O[C@@]2(C)Oc3c(C)c(O)c4c(O)c(c(/C=N/N5CCN(C)CC5)c(O)c4c3C2=O)NC(=O)/C(C)=C\C=C\[C@H](C)[C@H](O)[C@@H](C)[C@@H](O)[C@@H](C)[C@H](OC(C)=O)[C@@H]1C [rifampicin]
Conditions	AUC25, [2]	Einf, [1]	GRinf, [3]	total FIC50, [5]	total FIC90, [4]
in vitro model: acidic pH 5.7, time point: constant (~7 days, model-specific)	0.0731	0.851	-0.155	0.177	–
in vitro model: acidic pH 5.7, time point: terminal (~4-5 doublings, model-specific)	0.0678	0.99	-0.208	0.423	-0.913
in vitro model: intracellular J774, time point: constant = terminal	–	0.99	-0.539	–	0.76

Conditions	AUC25, [2]	Einf, [1]	GRinf, [3]	total FIC50, [5]	total FIC90, [4]
in vitro model: butyrate, time point: constant (~7 days, model-specific)	0.119	0.869	0.125	0.49	2.29
in vitro model: butyrate, time point: terminal (~4-5 doublings, model-specific)	0.114	0.977	-0.00285	0.525	1.3
in vitro model: cholesterol 0.05 mM, time point: constant (~7 days, model-specific)	0.096	0.6	0.1	–	–
in vitro model: cholesterol 0.05 mM, time point: terminal (~4-5 doublings, model-specific)	0.0868	0.868	-0.00841	1.23	–
in vitro model: cholesterol-high 0.2 mM, time point: constant (~7 days, model-specific)	0.0908	0.912	-0.393	1.26	–
in vitro model: cholesterol-high 0.2 mM, time point: terminal (~4-5 doublings, model-specific)	0.0879	1	-0.949	1.58	1.47
in vitro model: dormancy (butyrate + nitrate, low O2), time point: constant (~7 days, model-specific)	0.0806	0.87	0.204	0.465	-0.0278
in vitro model: dormancy (butyrate + nitrate, low O2), time point: terminal (~4-5 doublings, model-specific)	0.0656	0.978	-0.115	0.411	0.407
in vitro model: standard 7H9 glycerol, time point: constant = terminal	0.0452	0.781	0.36	–	–
in vitro model: valerate, time point: constant (~7 days, model-specific)	0.0626	0.785	0.176	0.864	–
in vitro model: valerate, time point: terminal (~4-5 doublings, model-specific)	0.0319	0.909	0.127	0.853	0.657
